Each structure is given as a SMILES string.

What all share (assay type): biochemical
In test [1] the target is T1, β-secretase (BACE) (Homo sapiens, UniProt P56817).
T1 construct: purchased Panvera
Nature of the test: BACE FS1% Inhibition Assay (Example 160). As to conditions: read-out: % Inhibition (FS); for inhibition at 0.3 µM: 0.3 μM test compound; for inhibition at 1 µM: 1 μM test compound; for inhibition at 3 µM: 3 μM test compound; for inhibition at 10 µM: 10 μM test compound.

The target in test [2] is T1, β-secretase (BACE). Nature of the test: BACE Assay-2 (Example 159), FS1 substrate, kinetic fluorescence. As to conditions: procedure of Example 159. On the procedure: The FS1-substrate stock solution was prepared in DMSO as a 10 mg/mL solution. The FS1-substrate working solution was prepared by diluting the 10 mg/mL stock solution with substrate assay buffer to a final concentration of 300 μg/mL. The β-secretase (BACE) working solution was prepared by diluting a 0.83 mg/mL BACE stock solution with enzyme assay buffer to a final concentration of 4 μg/mL.
Test compounds were dissolved in DMSO at 10 mM.
The procedure for this assay was as follows: 15 μL of BACE working solution was pipetted into each well of a 96-well plate. To each well was then pipetted 2 μL of test compound at the selected concentration. Test compound and BACE were then mixed with a pipettor and incubated for 20 min at room temperature. To each well was then added 10 μL of the FS1 substrate working solution.
The procedure for the positive control was as follows: 15 μL of BACE working solution was pipetted into each well to be used as a positive control. To each well was then pipetted 2 μL of vehicle. Vehicle and BACE were then mixed with a pipettor and incubated for 20 min at room temperature. To each well was then added 10 μL of the FS1 substrate working solution.
For test compounds, measured at multiple concentrations, the measured T0 and T60 values were used to calculate an IC50 value using Graphpad Software (or PIR). For test compounds, Ki inhibition was determined as follows: For each compound concentration and positive control, rate of cleavage of substrate (Vi, where i=compound concentration in μM) was determined as Δ Fluorescence/Δ time (min). Cleavage rates (Vi) were plotted as a function of inhibitor concentration in μM [I]. The Ki was then determined by fitting the following equation to the graph of [I] vs Vi Y=aVmax/(50+24*(1+X/Ki)),

Test [3] deals with T1, β-secretase (BACE). The test is described as follows: BACE % Inhibition Assay (Example 161), (Aedens)-[…]-(Dabcyl K-amide) substrate. The conditions noted are these: % error ±10%; for inhibition at 0.3 µM: 0.3 μM test compound; for inhibition at 1 µM: 1 μM test compound; for inhibition at 3 µM: 3 μM test compound. How it is done:
The following reagents were used in this assay: sodium acetate, PEG8000 (Sigma), DMSO, HEPES, (Aedens)-[…]-(Dabcyl K-amide) substrate, β-secretase (BACE) (Panvera), and 96-well plate (HE microplate, Molecular Devices).
The substrate stock solution was prepared in DMSO as a 10 mg/mL solution. The substrate working solution was prepared by diluting the 10 mg/mL stock solution with substrate assay buffer to a final concentration of 300 μg/mL. The β-secretase (BACE) working solution was prepared by diluting a 0.83 mg/mL BACE stock solution with enzyme assay buffer to a final concentration of 4 μg/mL.
Test compounds were dissolved in DMSO to 10 mM.
The screening procedure for this assay was as follows: 15 μL of BACE working solution was pipetted into each well of a 96-well plate. To each well was then pipetted 2 μL of test compound at the selected concentration. Test compound and BACE were then mixed with a pipettor and incubated for 20 min at room temperature. To each well was then added 10 μL of the substrate working solution. The plates were then incubated for 1 hour at room temperature.
The procedure for the blank was as follows. 15 μL of assay buffer was pipetted into each well to be used as a blank control. To each well was then added 2 μL of vehicle and 10 μL of substrate working solution. The plates were then incubated for 1 hour at room temperature.
The procedure for the positive control was as follows: 15 μl of BACE working solution was pipetted into each well to be used as a positive control. To each well was then pipetted 2 μL of vehicle. Vehicle and BACE were then mixed with a pipettor and incubated for 20 min at room temperature. To each well was then added 10 μL of the substrate working solution. The plates were then incubated for 1 hour at room temperature.
For test compounds, % inhibition was determined at each concentration as follows: % Inhibition=[[…]][FI(positive control)−FI(negative control)]

The target of test [4] is T1, β-secretase (BACE). Nature of the test: BACE Assay-1 (Example 158), MCA-substrate fluorescence. As to conditions: procedure of Example 158. On the procedure:
The following standards are reagents were used in this assay: Sodium Citrate trisodium salt dihydrate (Sigma), Citric Acid monohydrate (Merck), PEG8000 (Sigma), MCA-substrate (Bachem), β-secretase (BACE) (Panvera), 96-well plate zwart (Costar (Elscolab)), StatVal (Bachem).
The following standard assay buffer solution was prepared and used in this assay: 0.05 M, pH 5.0 mixture of sodium citrate trisodium salt dihydrate (9.56 g), citric acid monohydrate (3.68 g) and PEG8000 (0.50 g).
The MCA-substrate stock solution was prepared by mixing 10 mg MCA-substrate with 5 mL DMSO for a final solution concentration of 2.0 mg/mL. The substrate work solution was prepared by mixing 0.1 mL substrate in 1.90 mL assay buffer for a final concentration of 0.05 mM. The β-secretase (BACE) work solution was prepared by mixing 8 μL BACE in 2 mL assay buffer for a final concentration of 10 μg/mL.
The screen procedure for this assay was as follows. 60 μL of assay buffer was pippeted into each well of a 96-well plate. To each well was then pipetted 1 μL of test compound at the selected concentration. To each well was then added 20 μL of the β-secretase work solution and 20 μL of the MCA-substrate stock solution.
The procedure for the blank was as follows. 80 μL of assay buffer was pipetted into each well to be used as a blank control. To each well was then added 1 μL of DMSO and 20 μL of MCA-substrate solution in each well.
The procedure for the positive control was as follows. 60 μL of assay buffer was pipetted into each well to be used as a positive control. To each well was then added 1 μL of DMSO, 20 μL of BACE work solution and 20 μL of MCA-substrate stock solution.
For test compounds, measured at multiple concentrations, the measured T0 and T60 values were used to calculate an IC50 value using Graphpad Software (or PIR).

T1 sequence (P56817 46-501): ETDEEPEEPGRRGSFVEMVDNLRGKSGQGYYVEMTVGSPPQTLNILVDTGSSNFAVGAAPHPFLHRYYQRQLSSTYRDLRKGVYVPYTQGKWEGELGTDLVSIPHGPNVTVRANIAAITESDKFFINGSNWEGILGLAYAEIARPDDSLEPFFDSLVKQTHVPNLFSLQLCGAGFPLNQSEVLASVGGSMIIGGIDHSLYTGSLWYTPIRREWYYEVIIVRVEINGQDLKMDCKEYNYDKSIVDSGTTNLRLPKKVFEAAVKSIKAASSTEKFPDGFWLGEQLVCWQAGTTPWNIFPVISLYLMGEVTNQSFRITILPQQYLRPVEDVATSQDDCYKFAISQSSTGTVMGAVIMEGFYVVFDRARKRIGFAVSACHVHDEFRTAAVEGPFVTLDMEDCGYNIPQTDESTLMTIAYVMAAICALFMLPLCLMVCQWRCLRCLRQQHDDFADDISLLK

With `CN(C(=O)CC(C1CCCCC1)N1Cc2cc(Oc3ccccc3)ccc2N=C1N)C1CCCCC1` (stereo not shown) [Compound 199], at β-secretase (BACE) [1], the inhibition (as a rule, the drop in the measured response relative to a control, in per cent) at 0.3 µM was below 30%; the inhibition at 1 µM is below 30%; the inhibition at 3 µM is 82%. The affinity on β-secretase (BACE) [2], expressed as Ki, was 0.51 µM.
`CCC[C@H](CNC(=O)CCC(C)C)N1Cc2cc(Oc3ccccc3)ccc2N=C1N` [Compound 603]: on β-secretase (BACE) [1], the inhibition at 0.3 µM is 101%, the inhibition at 1 µM was found to be 114% and the inhibition at 3 µM was 122%. For the same molecule, at β-secretase (BACE) [2], the Ki (commonly the equilibrium dissociation constant of an inhibitor or competing ligand from its target) came to 0.033 µM.
In the case of `NC1=Nc2ccc(Oc3ccccc3)cc2CN1C(CNC(=O)C1(c2ccc(Cl)cc2)CCCC1)C1CCCCC1` (stereo not shown) [Compound 390], the inhibition constant Ki on β-secretase (BACE) [2] was 0.57 µM. At β-secretase (BACE) [3], the inhibition at 0.3 µM is below 30%, the inhibition at 1 µM was 50% and the inhibition at 3 µM was 102%.
For `NC1=Nc2ccc(Oc3ccccc3)cc2CN1C(CNC(=O)C12CC3CC(CC(C3)C1)C2)C1CCCCC1` (stereo not shown) [Compound 312], at β-secretase (BACE) [1], the inhibition at 0.3 µM amounted to 74%, the inhibition at 1 µM was 103% and the inhibition at 3 µM was 115%. Moreover, at β-secretase (BACE) [4], the concentration for half-maximal inhibition (IC50) – broadly, the concentration at which inhibition is half-maximal – amounted to 0.039 µM. The same molecule registered a Ki at β-secretase (BACE) [2] of 0.039 µM.
Turning to `CC(C)(C)C(=O)NCC(C1CCCCC1)N1Cc2cc(Oc3ccccc3)ccc2N=C1N` (stereo not shown) [Compound 317], at β-secretase (BACE) [4], the IC50 turned out to be 0.39 µM. Also, the Ki on β-secretase (BACE) [2] is 0.18 µM. Further, on β-secretase (BACE) [3], the inhibition at 0.3 µM is below 30%, the inhibition at 1 µM was 66% and the inhibition at 3 µM amounted to 107%.
The molecule `CCCN1Cc2cc(Oc3cccc(NS(=O)(=O)c4cccc5nsnc45)c3)ccc2N=C1N` [Compound 247] showed an IC50 on β-secretase (BACE) [4] of 1.7 µM.
With `CCCC(CNC(=O)C12CC3CC(CC(C3)C1)C2)N1Cc2cc(Oc3ccccc3)ccc2N=C1N` (stereo not shown) [Compound 602], at β-secretase (BACE) [1], the inhibition at 0.3 µM turned out to be 78%, the inhibition at 1 µM was 113% and the inhibition at 3 µM was determined as 121%. On β-secretase (BACE) [2], this molecule came in with an inhibitory constant (Ki) of 0.056 µM.
On the same counts, the results for `CCCCCC(CCC(=O)NC1CCCCCC1)N1Cc2cc(Oc3ccccc3)ccc2N=C1N` (stereo not shown) [Compound 150] are below 30%, below 30%, 90% and 0.46 µM.
Take `CCCC(CCC(=O)NC1CCCCCC1)N1Cc2cc(Oc3ccccc3)ccc2N=C1N` (stereo not shown) [Compound 128]: at β-secretase (BACE) [1], the inhibition at 3 µM was determined as 97% and the inhibition at 10 µM worked out at 108%. Moreover, the IC50 at β-secretase (BACE) [4] turned out to be 0.072 µM. At β-secretase (BACE) [2], this molecule showed an inhibition constant (Ki) of 0.13 µM.
For the molecule `CC(C)(C)OC(=O)NCC(C1CCCCC1)N1Cc2cc(Oc3ccccc3)ccc2N=C1N` (stereo not shown) [Compound 257], at β-secretase (BACE) [1], the inhibition at 0.3 µM was 67% and the inhibition at 1 µM amounted to 105%. This molecule also gave an IC50 against β-secretase (BACE) [4] of 0.083 µM. The molecule further came in with an inhibitory constant (Ki) on β-secretase (BACE) [2] of 0.056 µM.
With `CCCC(CCCC(=O)NC1CCCCC1)N1Cc2cc(Oc3ccccc3)ccc2N=C1N` (stereo not shown) [Compound 91], at β-secretase (BACE) [1], the inhibition at 3 µM amounted to 68% and the inhibition at 10 µM worked out at 117%. In addition, the 50% inhibitory concentration (IC50) against β-secretase (BACE) [4] was determined as 0.6 µM. The affinity on β-secretase (BACE) [2] corresponds to a Ki of 0.32 µM.

These data come from patent US8436006B2, “2-amino-quinazoline derivatives useful as inhibitors of β-secretase (BACE)” (Jansssen Pharmaceutica N.V., priority 2004, dated 2013).
